Measured values: US9738634B2, “Heterocyclic amide compound and herbicide” (SYNGENTA PARTICIPATIONS AG, priority 2013, dated 2017)

Columns and labels:
Type in all cases: in vivo
[1] = system: corn; test: Test Example 3: soil treatment, effect on crop; c: corn; conditions: treatment dosage 315 g/ha
Outline: (§1)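 Crop and weed responses were judged three weeks after a uniform surface spray of the water-diluted emulsion at the given g/ha rate. Seeds sat beneath about 1.5 cm of sterilized diluvial soil, and boxes stood in a greenhouse at 25 to 30° C.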

[2] = system: green foxtail; test: Test Example 3: weedkilling efficacy through soil treatment; E: green foxtail; conditions: treatment dosage 315 g/ha
Outline: as §1

[3] = system: beet; test: Test Example 3: soil treatment, effect on crop; f: beet; conditions: treatment dosage 315 g/ha
Outline: as §1

[4] = system: corn; test: Test Example 4: foliar treatment, effect on crop; c: corn; conditions: treatment dosage 315 g/ha
Outline: (§2)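 Seeds are spot-sown into sterilized diluvial soil and covered with about 1.5 cm of soil. After 14 days' greenhouse growth at 25 to 30° C, plants are sprayed on stems and leaves with diluted emulsion at the stated g/ha rate, then scored at 3 weeks.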

[5] = system: fig-leafed goosefoot; test: Test Example 3: weedkilling efficacy through soil treatment; M: fig-leafed goosefoot; conditions: treatment dosage 315 g/ha
Outline: as §1

[6] = system: barnyard grass; test: Test Example 2: weedkilling efficacy, growth period weed treatment in the submerged state; A: barnyard grass; conditions: treatment dosage 252 g/ha
Outline: (§3)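 Barnyard grass, bulrush and oval-leafed pondweed sown in alluvial soil under 4 cm flooding, greenhouse 25 to 30° C. At 1-2 leaf stage, water-diluted emulsion applied to the water surface at stated g/ha dosages; effects scored 3 weeks later.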

[7] = system: oval-leafed pondweed; test: Test Example 2: weedkilling efficacy, growth period weed treatment in the submerged state; C: oval-leafed pondweed; conditions: treatment dosage 252 g/ha
Outline: as §3

[8] = system: catchweed; test: Test Example 4: weedkilling efficacy by foliar treatment; O: catchweed; conditions: treatment dosage 315 g/ha
Outline: as §2

[9] = system: wheat; test: Test Example 3: soil treatment, effect on crop; e: wheat; conditions: treatment dosage 315 g/ha
Outline: as §1

[10] = system: redroot pigweed; test: Test Example 3: weedkilling efficacy through soil treatment; L: redroot pigweed; conditions: treatment dosage 315 g/ha
Outline: as §1

[11] = system: barnyard grass; test: Test Example 1: weedkilling efficacy, preemergent weed treatment in the submerged state; A: barnyard grass; conditions: treatment dosage 252 g/ha
Outline: (§4)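 Pots of alluvial soil flooded 4 cm deep, sown with barnyard grass, bulrush and oval-leafed pondweed and transplanted with 2.5-leaf rice. Emulsified compound applied to the water surface on sowing day at stated g/ha; greenhouse 25–30 °C, effects assessed 3 weeks after treatment.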

[12] = system: directly sown rice; test: Test Example 3: soil treatment, effect on crop; b: directly sown rice; conditions: treatment dosage 315 g/ha
Outline: as §1

[13] = system: chickweed; test: Test Example 3: weedkilling efficacy through soil treatment; N: chickweed; conditions: treatment dosage 315 g/ha
Outline: as §1

[14] = system: black-grass; test: Test Example 4: weedkilling efficacy by foliar treatment; H: black-grass; conditions: treatment dosage 315 g/ha
Outline: as §2

[15] = system: Indian mallow; test: Test Example 4: weedkilling efficacy by foliar treatment; K: Indian mallow; conditions: treatment dosage 315 g/ha
Outline: as §2

[16] = system: oval-leafed pondweed; test: Test Example 1: weedkilling efficacy, preemergent weed treatment in the submerged state; C: oval-leafed pondweed; conditions: treatment dosage 252 g/ha
Outline: as §4

[17] = system: bulrush; test: Test Example 1: weedkilling efficacy, preemergent weed treatment in the submerged state; B: bulrush; conditions: treatment dosage 252 g/ha
Outline: as §4

[18] = system: green foxtail; test: Test Example 4: weedkilling efficacy by foliar treatment; E: green foxtail; conditions: treatment dosage 315 g/ha
Outline: as §2

[19] = system: Italian ryegrass; test: Test Example 3: weedkilling efficacy through soil treatment; I: Italian ryegrass; conditions: treatment dosage 315 g/ha
Outline: as §1

[20] = system: directly sown rice; test: Test Example 4: foliar treatment, effect on crop; b: directly sown rice; conditions: treatment dosage 315 g/ha
Outline: as §2

[21] = system: wild oat; test: Test Example 3: weedkilling efficacy through soil treatment; G: wild oat; conditions: treatment dosage 315 g/ha
Outline: as §1

[22] = system: chickweed; test: Test Example 4: weedkilling efficacy by foliar treatment; N: chickweed; conditions: treatment dosage 315 g/ha
Outline: as §2

[23] = system: crabgrass; test: Test Example 4: weedkilling efficacy by foliar treatment; D: crabgrass; conditions: treatment dosage 315 g/ha
Outline: as §2

[24] = system: soybean; test: Test Example 4: foliar treatment, effect on crop; d: soybean; conditions: treatment dosage 315 g/ha
Outline: as §2

[25] = system: Indian mallow; test: Test Example 3: weedkilling efficacy through soil treatment; K: Indian mallow; conditions: treatment dosage 315 g/ha
Outline: as §1

[26] = system: catchweed; test: Test Example 3: weedkilling efficacy through soil treatment; O: catchweed; conditions: treatment dosage 315 g/ha
Outline: as §1

[27] = system: wheat; test: Test Example 4: foliar treatment, effect on crop; e: wheat; conditions: treatment dosage 315 g/ha
Outline: as §2

[28] = system: bulrush; test: Test Example 2: weedkilling efficacy, growth period weed treatment in the submerged state; B: bulrush; conditions: treatment dosage 252 g/ha
Outline: as §3

[29] = system: soybean; test: Test Example 3: soil treatment, effect on crop; d: soybean; conditions: treatment dosage 315 g/ha
Outline: as §1

[30] = system: beet; test: Test Example 4: foliar treatment, effect on crop; f: beet; conditions: treatment dosage 315 g/ha
Outline: as §2

[31] = system: transplanted rice; test: Test Example 1: preemergent weed treatment in the submerged state, effect on crop; a: transplanted rice; conditions: treatment dosage 252 g/ha
Outline: as §4

[32] = system: black-grass; test: Test Example 3: weedkilling efficacy through soil treatment; H: black-grass; conditions: treatment dosage 315 g/ha
Outline: as §1

[33] = system: birds-eye speedwell; test: Test Example 4: weedkilling efficacy by foliar treatment; p: birds-eye speedwell; conditions: treatment dosage 315 g/ha
Outline: as §2

[34] = system: fig-leafed goosefoot; test: Test Example 4: weedkilling efficacy by foliar treatment; M: fig-leafed goosefoot; conditions: treatment dosage 315 g/ha
Outline: as §2

[35] = system: crabgrass; test: Test Example 3: weedkilling efficacy through soil treatment; D: crabgrass; conditions: treatment dosage 315 g/ha
Outline: as §1

[36] = system: redroot pigweed; test: Test Example 4: weedkilling efficacy by foliar treatment; L: redroot pigweed; conditions: treatment dosage 315 g/ha
Outline: as §2

[37] = system: wild oat; test: Test Example 4: weedkilling efficacy by foliar treatment; G: wild oat; conditions: treatment dosage 315 g/ha
Outline: as §2

[38] = system: Italian ryegrass; test: Test Example 4: weedkilling efficacy by foliar treatment; I: Italian ryegrass; conditions: treatment dosage 315 g/ha
Outline: as §2

[39] = system: birds-eye speedwell; test: Test Example 3: weedkilling efficacy through soil treatment; p: birds-eye speedwell; conditions: treatment dosage 315 g/ha
Outline: as §1

Structure (SMILES) | c (corn) effect on crop grade [1] | E (green foxtail) weedkilling efficacy grade [2] | f (beet) effect on crop grade [3] | c (corn) effect on crop grade [4] | M (fig-leafed goosefoot) weedkilling efficacy grade [5] | A (barnyard grass) weedkilling efficacy grade [6] | C (oval-leafed pondweed) weedkilling efficacy grade [7] | O (catchweed) weedkilling efficacy grade [8] | e (wheat) effect on crop grade [9] | L (redroot pigweed) weedkilling efficacy grade [10] | A (barnyard grass) weedkilling efficacy grade [11] | b (directly sown rice) effect on crop grade [12] | N (chickweed) weedkilling efficacy grade [13] | H (black-grass) weedkilling efficacy grade [14] | K (Indian mallow) weedkilling efficacy grade [15] | C (oval-leafed pondweed) weedkilling efficacy grade [16] | B (bulrush) weedkilling efficacy grade [17] | E (green foxtail) weedkilling efficacy grade [18] | I (Italian ryegrass) weedkilling efficacy grade [19] | b (directly sown rice) effect on crop grade [20] | also measured
CC1=C(c2ccccc2)C(=O)N(C(C)(C)C(=O)Nc2nnc(C(F)(F)F)s2)CO1 [B-1-10] | 3 (weed kill ratio 40% or more, less than 70%) | 5 (weed kill ratio 90% or more, (practically complete withering)) | 3 (weed kill ratio 40% or more, less than 70%) | 4 (weed kill ratio 70% or more, less than 90%) | 3 (weed kill ratio 40% or more, less than 70%) | 4 (weed kill ratio 70% or more, less than 90%) | 5 (weed kill ratio 90% or more, (practically complete withering)) | 2 (weed kill ratio 20% or more, less than 40%) | 0 (weed kill ratio 5% or less (practically no effect)) | 3 (weed kill ratio 40% or more, less than 70%) | 5 (weed kill ratio 90% or more, (practically complete withering)) | 5 (weed kill ratio 90% or more, (practically complete withering)) | 2 (weed kill ratio 20% or more, less than 40%) | 4 (weed kill ratio 70% or more, less than 90%) | 4 (weed kill ratio 70% or more, less than 90%) | 5 (weed kill ratio 90% or more, (practically complete withering)) | 5 (weed kill ratio 90% or more, (practically complete withering)) | 5 (weed kill ratio 90% or more, (practically complete withering)) | 3 (weed kill ratio 40% or more, less than 70%) | 5 (weed kill ratio 90% or more, (practically complete withering)) | G (wild oat) weedkilling efficacy grade [21]: 4 (weed kill ratio 70% or more, less than 90%); N (chickweed) weedkilling efficacy grade [22]: 2 (weed kill ratio 20% or more, less than 40%); D (crabgrass) weedkilling efficacy grade [23]: 5 (weed kill ratio 90% or more, (practically complete withering)); d (soybean) effect on crop grade [24]: 2 (weed kill ratio 20% or more, less than 40%); K (Indian mallow) weedkilling efficacy grade [25]: 3 (weed kill ratio 40% or more, less than 70%); O (catchweed) weedkilling efficacy grade [26]: 0 (weed kill ratio 5% or less (practically no effect)); e (wheat) effect on crop grade [27]: 0 (weed kill ratio 5% or less (practically no effect)); B (bulrush) weedkilling efficacy grade [28]: 5 (weed kill ratio 90% or more, (practically complete withering)); d (soybean) effect on crop grade [29]: 0 (weed kill ratio 5% or less (practically no effect)); f (beet) effect on crop grade [30]: 2 (weed kill ratio 20% or more, less than 40%); a (transplanted rice) effect on crop grade [31]: 3 (weed kill ratio 40% or more, less than 70%); H (black-grass) weedkilling efficacy grade [32]: 5 (weed kill ratio 90% or more, (practically complete withering)); P (birds-eye speedwell) weedkilling efficacy grade [33]: 4 (weed kill ratio 70% or more, less than 90%); M (fig-leafed goosefoot) weedkilling efficacy grade [34]: 3 (weed kill ratio 40% or more, less than 70%); D (crabgrass) weedkilling efficacy grade [35]: 5 (weed kill ratio 90% or more, (practically complete withering)); L (redroot pigweed) weedkilling efficacy grade [36]: 2 (weed kill ratio 20% or more, less than 40%); G (wild oat) weedkilling efficacy grade [37]: 2 (weed kill ratio 20% or more, less than 40%); I (Italian ryegrass) weedkilling efficacy grade [38]: 0 (weed kill ratio 5% or less (practically no effect)); P (birds-eye speedwell) weedkilling efficacy grade [39]: 4 (weed kill ratio 70% or more, less than 90%)
CC1=C(c2cccnc2F)C(=O)N(C(C)(C)C(=O)Nc2cc(Cl)ccn2)CO1 [B-2-07] | 3 (weed kill ratio 40% or more, less than 70%) | 5 (weed kill ratio 90% or more, (practically complete withering)) | 1 (weed kill ratio 5% or more, less than 20%) | 1 (weed kill ratio 5% or more, less than 20%) | 3 (weed kill ratio 40% or more, less than 70%) | 3 (weed kill ratio 40% or more, less than 70%) | 2 (weed kill ratio 20% or more, less than 40%) | 2 (weed kill ratio 20% or more, less than 40%) | 0 (weed kill ratio 5% or less (practically no effect)) | 3 (weed kill ratio 40% or more, less than 70%) | 5 (weed kill ratio 90% or more, (practically complete withering)) | 4 (weed kill ratio 70% or more, less than 90%) | 3 (weed kill ratio 40% or more, less than 70%) | 4 (weed kill ratio 70% or more, less than 90%) | 1 (weed kill ratio 5% or more, less than 20%) | 5 (weed kill ratio 90% or more, (practically complete withering)) | 5 (weed kill ratio 90% or more, (practically complete withering)) | 4 (weed kill ratio 70% or more, less than 90%) | 5 (weed kill ratio 90% or more, (practically complete withering)) | 4 (weed kill ratio 70% or more, less than 90%) | G (wild oat) weedkilling efficacy grade [21]: 3 (weed kill ratio 40% or more, less than 70%); N (chickweed) weedkilling efficacy grade [22]: 2 (weed kill ratio 20% or more, less than 40%); D (crabgrass) weedkilling efficacy grade [23]: 5 (weed kill ratio 90% or more, (practically complete withering)); d (soybean) effect on crop grade [24]: 3 (weed kill ratio 40% or more, less than 70%); K (Indian mallow) weedkilling efficacy grade [25]: 2 (weed kill ratio 20% or more, less than 40%); O (catchweed) weedkilling efficacy grade [26]: 3 (weed kill ratio 40% or more, less than 70%); e (wheat) effect on crop grade [27]: 0 (weed kill ratio 5% or less (practically no effect)); B (bulrush) weedkilling efficacy grade [28]: 5 (weed kill ratio 90% or more, (practically complete withering)); d (soybean) effect on crop grade [29]: 1 (weed kill ratio 5% or more, less than 20%); f (beet) effect on crop grade [30]: 3 (weed kill ratio 40% or more, less than 70%); a (transplanted rice) effect on crop grade [31]: 0 (weed kill ratio 5% or less (practically no effect)); H (black-grass) weedkilling efficacy grade [32]: 5 (weed kill ratio 90% or more, (practically complete withering)); P (birds-eye speedwell) weedkilling efficacy grade [33]: 3 (weed kill ratio 40% or more, less than 70%); M (fig-leafed goosefoot) weedkilling efficacy grade [34]: 3 (weed kill ratio 40% or more, less than 70%); D (crabgrass) weedkilling efficacy grade [35]: 5 (weed kill ratio 90% or more, (practically complete withering)); L (redroot pigweed) weedkilling efficacy grade [36]: 2 (weed kill ratio 20% or more, less than 40%); G (wild oat) weedkilling efficacy grade [37]: 3 (weed kill ratio 40% or more, less than 70%); I (Italian ryegrass) weedkilling efficacy grade [38]: 5 (weed kill ratio 90% or more, (practically complete withering)); P (birds-eye speedwell) weedkilling efficacy grade [39]: 5 (weed kill ratio 90% or more, (practically complete withering))
